“And” between values parts separate entries of the source, which are not always exact repeats. Identical values can stand only once. Like-named read-outs stand apart in the source and are kept apart here.
Assays:
[1] = Cytotoxicity assay (Cell Titer-Glo 2.0) in Vero E6 cells; assay type: cell-based; details: African green monkey
Description: Calu-3 and Vero E6 cells (2500 or 10,000 cells for samples, 80–20,000 cells for standard curve) were seeded in 96-well plates. Following a 24-h incubation at 37 °C, 5% CO2, cells were washed with D-PBS and compounds added (10 µM) for an additional 24-h incubation. Cellular viability was assessed using Cell Titer-Glo 2.0 Cell Viability Assay (Promega) according to the manufacturer’s instructions. The number of viable cells was extrapolated using the standard curve. Cellular viability in Vero E6 cells was expressed relative (%) to vehicle-treated cells. Data are from four independent experiments (mean ± s.d.).

[2] = tested on: SARS-CoV-2 (VIDO); assay type: cell-based; design: plaque assay titre, Figure 2c: unit not given beside the values; details: for reduction of viral titre (plaque assay): supernatant of infected Calu-3 cells, vs DMSO-treated infected control; for plaque assay titre, Figure 2c: replicate columns

SMILES: CS(=O)(=O)NC(CCC(N)=O)C(=O)NC(Cc1ccccc1)C(=O)NC(CCCNC(=N)N)C(=O)c1nc2ccccc2s1 (stereo not drawn) [Compound N-0385, Ms-QFR-kbt]
- viability at 24 h, 10 µM ([1]; 10 μM compound, 24 h, relative to vehicle (DMSO 0.01%), single experiments N1-N4, read-out: % Viability of Vero E6 cells): 127%
- viability at 24 h, 10 µM ([1]; % Viability of Vero E6 cells): 100%
- reduction of viral titre (plaque assay) ([2]; 40 nM): ~2 log
- plaque assay titre, Figure 2c ([2]; 40 nM): 1000 (11×) and 22000 (2×) and 33000 and 132000 and 10000 (2×) and 33333
- reduction of viral titre (plaque assay) ([2]; 200 nM): ~2 log
- plaque assay titre, Figure 2c ([2]; 200 nM): 1000 (8×) and 10000 (6×) and 20000 (2×) and 11111 and 40000 and 30000

Reference: article PMC9095466 (Nature, 2022)
